Results taken from ChEMBL document CHEMBL5150077, “Identification of TUL01101: A Novel Potent and Selective JAK1 Inhibitor for the Treatment of Rheumatoid Arthritis” (J Med Chem, 2022).

How the values were obtained:
[1] = molecular target: T1, Tyrosine-protein kinase JAK3 (Homo sapiens, UniProt P52333); assay: Inhibition of recombinant human JAK3 using GGEEEEYFELVKKKK as substrate incubated for 40 mins in presence of Mg/ATP mixture by [gamma p33]-ATP based scintillation counting method
T1 sequence (P52333 whole entry): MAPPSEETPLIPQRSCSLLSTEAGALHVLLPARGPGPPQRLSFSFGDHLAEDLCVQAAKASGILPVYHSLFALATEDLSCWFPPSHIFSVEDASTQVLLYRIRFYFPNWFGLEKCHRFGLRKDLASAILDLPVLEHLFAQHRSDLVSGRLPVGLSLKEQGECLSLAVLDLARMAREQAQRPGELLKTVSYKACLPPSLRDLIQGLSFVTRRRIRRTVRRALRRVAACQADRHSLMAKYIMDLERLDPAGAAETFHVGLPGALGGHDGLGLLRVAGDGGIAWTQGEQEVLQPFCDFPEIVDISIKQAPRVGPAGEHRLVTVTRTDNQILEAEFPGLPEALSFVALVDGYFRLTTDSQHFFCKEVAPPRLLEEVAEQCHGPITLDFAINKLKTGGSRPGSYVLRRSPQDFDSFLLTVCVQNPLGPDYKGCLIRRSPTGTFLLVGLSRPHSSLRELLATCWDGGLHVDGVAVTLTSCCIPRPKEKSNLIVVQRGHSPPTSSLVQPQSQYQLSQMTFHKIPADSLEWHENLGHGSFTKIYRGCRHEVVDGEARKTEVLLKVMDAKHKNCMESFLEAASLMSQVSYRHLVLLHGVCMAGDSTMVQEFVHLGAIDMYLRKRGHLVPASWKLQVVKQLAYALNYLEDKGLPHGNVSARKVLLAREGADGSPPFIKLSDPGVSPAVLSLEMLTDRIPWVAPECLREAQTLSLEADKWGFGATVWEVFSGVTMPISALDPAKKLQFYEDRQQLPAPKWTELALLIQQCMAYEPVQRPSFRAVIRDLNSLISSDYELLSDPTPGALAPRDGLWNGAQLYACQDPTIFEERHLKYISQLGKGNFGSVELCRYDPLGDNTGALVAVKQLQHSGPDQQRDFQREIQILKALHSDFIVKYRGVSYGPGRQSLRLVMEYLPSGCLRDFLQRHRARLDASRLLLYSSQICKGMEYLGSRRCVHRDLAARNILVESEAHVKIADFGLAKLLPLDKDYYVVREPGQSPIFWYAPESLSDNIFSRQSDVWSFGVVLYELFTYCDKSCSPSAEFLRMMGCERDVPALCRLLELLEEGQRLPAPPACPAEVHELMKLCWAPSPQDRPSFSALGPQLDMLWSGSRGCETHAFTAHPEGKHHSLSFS

[2] = molecular target: Non-receptor tyrosine-protein kinase TYK2 (Homo sapiens, UniProt P29597); assay: Inhibition of recombinant human TYK2 using GGMEDIYFEFMGGKKK as substrate incubated for 40 mins in presence of Mg/ATP mixture by [gamma p33]-ATP based scintillation counting method
Chain of Non-receptor tyrosine-protein kinase TYK2 (P29597 whole entry): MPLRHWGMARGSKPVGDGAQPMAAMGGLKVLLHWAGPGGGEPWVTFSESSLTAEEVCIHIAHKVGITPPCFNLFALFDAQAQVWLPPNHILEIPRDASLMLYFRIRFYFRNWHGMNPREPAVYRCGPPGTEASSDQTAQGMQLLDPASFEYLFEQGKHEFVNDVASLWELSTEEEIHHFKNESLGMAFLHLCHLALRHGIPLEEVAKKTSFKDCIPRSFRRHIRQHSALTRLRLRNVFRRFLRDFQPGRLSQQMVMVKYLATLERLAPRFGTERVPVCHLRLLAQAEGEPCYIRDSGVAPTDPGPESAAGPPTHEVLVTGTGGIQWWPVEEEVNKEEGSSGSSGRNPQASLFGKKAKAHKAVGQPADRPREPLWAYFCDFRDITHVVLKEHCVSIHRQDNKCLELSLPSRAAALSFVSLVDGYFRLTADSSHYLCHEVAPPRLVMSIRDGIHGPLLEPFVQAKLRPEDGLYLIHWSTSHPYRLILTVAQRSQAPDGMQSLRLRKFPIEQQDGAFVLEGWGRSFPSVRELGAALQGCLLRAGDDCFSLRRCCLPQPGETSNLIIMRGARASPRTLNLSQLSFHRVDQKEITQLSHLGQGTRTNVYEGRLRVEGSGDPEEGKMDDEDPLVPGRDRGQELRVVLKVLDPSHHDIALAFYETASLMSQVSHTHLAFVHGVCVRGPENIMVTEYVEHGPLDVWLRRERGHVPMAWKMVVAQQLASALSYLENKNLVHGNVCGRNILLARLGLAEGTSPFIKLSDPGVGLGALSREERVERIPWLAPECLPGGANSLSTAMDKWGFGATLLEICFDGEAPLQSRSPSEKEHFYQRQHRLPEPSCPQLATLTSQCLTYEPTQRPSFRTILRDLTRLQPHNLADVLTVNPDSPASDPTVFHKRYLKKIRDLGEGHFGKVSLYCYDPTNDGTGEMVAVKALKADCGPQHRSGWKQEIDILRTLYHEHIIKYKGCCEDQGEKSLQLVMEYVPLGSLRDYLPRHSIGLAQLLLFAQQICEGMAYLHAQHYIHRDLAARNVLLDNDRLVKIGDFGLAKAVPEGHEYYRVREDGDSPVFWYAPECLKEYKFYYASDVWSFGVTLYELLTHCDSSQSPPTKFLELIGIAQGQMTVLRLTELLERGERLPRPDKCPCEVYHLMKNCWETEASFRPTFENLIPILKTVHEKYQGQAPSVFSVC

[3] = molecular target: Tyrosine-protein kinase JAK1 (Homo sapiens, UniProt P23458); assay: Inhibition of recombinant human JAK1 using MGEEPLYWSFPAKKK as substrate incubated for 40 mins in presence of Mg/ATP mixture by [gamma p33]-ATP based scintillation counting method
Chain of Tyrosine-protein kinase JAK1 (P23458 whole entry): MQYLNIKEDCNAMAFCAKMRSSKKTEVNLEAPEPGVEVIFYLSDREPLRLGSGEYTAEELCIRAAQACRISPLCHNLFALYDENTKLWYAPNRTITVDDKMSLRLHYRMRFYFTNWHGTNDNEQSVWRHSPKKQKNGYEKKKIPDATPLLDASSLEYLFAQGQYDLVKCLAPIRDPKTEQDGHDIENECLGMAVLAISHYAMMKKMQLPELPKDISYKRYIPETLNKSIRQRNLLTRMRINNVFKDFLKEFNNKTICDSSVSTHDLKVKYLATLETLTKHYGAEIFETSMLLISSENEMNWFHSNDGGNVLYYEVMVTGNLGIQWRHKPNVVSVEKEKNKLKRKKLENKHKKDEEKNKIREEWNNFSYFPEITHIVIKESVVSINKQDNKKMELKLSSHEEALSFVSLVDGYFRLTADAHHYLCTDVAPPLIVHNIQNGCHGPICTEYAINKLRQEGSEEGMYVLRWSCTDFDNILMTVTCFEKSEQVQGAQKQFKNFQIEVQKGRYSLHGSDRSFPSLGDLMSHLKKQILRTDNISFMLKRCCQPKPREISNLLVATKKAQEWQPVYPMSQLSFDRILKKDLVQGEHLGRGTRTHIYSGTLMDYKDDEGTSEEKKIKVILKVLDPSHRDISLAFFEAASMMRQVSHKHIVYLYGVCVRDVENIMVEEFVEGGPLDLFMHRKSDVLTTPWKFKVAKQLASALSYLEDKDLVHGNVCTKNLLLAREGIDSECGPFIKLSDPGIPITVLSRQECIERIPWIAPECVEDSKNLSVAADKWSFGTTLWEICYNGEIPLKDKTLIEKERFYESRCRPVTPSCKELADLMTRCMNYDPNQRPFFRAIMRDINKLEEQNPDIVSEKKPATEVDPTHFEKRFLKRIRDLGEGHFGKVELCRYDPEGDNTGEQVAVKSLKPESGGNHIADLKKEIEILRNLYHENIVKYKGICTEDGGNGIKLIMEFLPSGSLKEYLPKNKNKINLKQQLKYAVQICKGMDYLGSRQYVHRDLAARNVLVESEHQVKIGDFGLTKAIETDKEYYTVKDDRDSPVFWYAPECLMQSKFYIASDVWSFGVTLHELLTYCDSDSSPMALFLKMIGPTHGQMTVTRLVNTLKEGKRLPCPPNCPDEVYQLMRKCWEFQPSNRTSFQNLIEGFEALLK

Homo sapiens [4] = species: Homo sapiens; assay: Selectivity index, ratio of IC50 for inhibition of recombinant human JAK2 to IC50 for inhibition of recombinant human JAK1
Homo sapiens [5] = species: Homo sapiens; assay: Selectivity index, ratio of IC50 for inhibition of recombinant human TYK2 to IC50 for inhibition of recombinant human JAK1
[6] = molecular target: Tyrosine-protein kinase JAK2 (Homo sapiens, UniProt O60674); assay: Inhibition of recombinant human JAK2 using KTFCGTPEYLAPEVRREPRILSEEEQEMFRDFDYIADWC as substrate incubated for 40 mins in presence of Mg/ATP mixture by [gamma p33]-ATP based scintillation counting method
Chain of Tyrosine-protein kinase JAK2 (O60674 whole entry): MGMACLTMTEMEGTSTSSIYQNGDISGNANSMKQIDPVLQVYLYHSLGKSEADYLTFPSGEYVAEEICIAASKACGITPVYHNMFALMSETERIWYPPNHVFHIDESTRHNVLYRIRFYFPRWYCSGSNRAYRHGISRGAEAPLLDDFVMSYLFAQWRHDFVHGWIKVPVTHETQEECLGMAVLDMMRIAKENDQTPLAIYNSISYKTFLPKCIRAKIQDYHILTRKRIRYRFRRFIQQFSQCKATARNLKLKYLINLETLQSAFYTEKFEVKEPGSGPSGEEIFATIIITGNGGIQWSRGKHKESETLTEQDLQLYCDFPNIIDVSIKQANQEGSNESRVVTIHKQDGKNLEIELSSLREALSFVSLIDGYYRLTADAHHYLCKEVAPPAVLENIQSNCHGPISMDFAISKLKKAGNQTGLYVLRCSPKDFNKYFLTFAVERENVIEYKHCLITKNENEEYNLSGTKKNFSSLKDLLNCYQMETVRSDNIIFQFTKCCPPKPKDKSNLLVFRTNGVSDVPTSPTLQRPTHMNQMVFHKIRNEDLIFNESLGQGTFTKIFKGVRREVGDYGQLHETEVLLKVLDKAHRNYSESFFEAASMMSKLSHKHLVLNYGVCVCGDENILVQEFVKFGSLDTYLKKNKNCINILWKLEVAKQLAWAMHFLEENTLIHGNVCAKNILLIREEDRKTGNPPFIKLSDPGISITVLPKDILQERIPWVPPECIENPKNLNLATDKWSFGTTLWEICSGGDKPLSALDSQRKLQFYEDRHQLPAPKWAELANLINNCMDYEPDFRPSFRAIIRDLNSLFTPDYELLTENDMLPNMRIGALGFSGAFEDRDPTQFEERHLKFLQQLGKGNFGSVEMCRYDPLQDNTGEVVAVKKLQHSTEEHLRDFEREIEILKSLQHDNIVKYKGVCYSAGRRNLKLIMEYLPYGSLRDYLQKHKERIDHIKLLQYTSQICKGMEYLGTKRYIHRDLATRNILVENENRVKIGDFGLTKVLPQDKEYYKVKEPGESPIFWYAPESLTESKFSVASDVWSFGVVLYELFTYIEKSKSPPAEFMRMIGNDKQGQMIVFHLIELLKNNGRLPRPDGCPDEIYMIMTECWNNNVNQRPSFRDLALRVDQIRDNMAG

IC50 [1]	IC50 [2]	IC50 [3]	Ratio IC50 (Homo sapiens [4])	Ratio IC50 (Homo sapiens [5])	IC50 [6]	Structure (SMILES)
> 10000 nM	278 nM	68 nM	7.6	4.1	520 nM	N#CCC(=O)N1CCC2(CCC(c3cccc4nc(NC(=O)C5CC5)nn34)CC2)C1 (centres undefined)
5520 nM	78 nM	12 nM	11.8	6.5	141 nM	O=C(Nc1nc2cccc(C3=CC[C@H](NC(=O)[C@@H]4CC4(F)F)CC3)n2n1)C1CC1
9390 nM	829 nM	63 nM	15.8	13.2	998 nM	O=C(Nc1nc2cccc([C@H]3CCC4(CCN(C(=O)[C@@H]5CC5(F)F)CC4)C3)n2n1)C1CC1

Structure (SMILES)	IC50 [1]	IC50 [2]	IC50 [3]	Ratio IC50 (Homo sapiens [4])	Ratio IC50 (Homo sapiens [5])	IC50 [6]
O=C(Nc1nc2cccc([C@H]3CC[C@H](NC(=O)[C@@H]4CC4(F)F)CC3)n2n1)C1CC1	> 10000 nM	1740 nM	181 nM	26.3	9.6	4750 nM
